Experimental data published in patent publication US20050250819A1 (priority 2004, published 2005).

Experiments:
Type in all cases: cell-based
[1] = system: Type III-dependent secretion of SipB (SPI1 type III protein secretion system); assay: Secondary assay: Type III-dependent protein secretion of the SipB polypeptide by S. enterica; settings: Salmonella enterica, read-out: SipB IC50(μM)
Procedure: Secondary assay: Type III-dependent protein secretion of the SipB polypeptide by S. enterica. The SipB protein of S. enterica is another effector of the SPI1 type III protein secretion system from S. enterica. In this cell-based procedure, the Type III-dependent secretion of SipB from the bacterial cytoplasm to the extracellular medium was measured through its reactivity with a cognate mouse monoclonal.
Salmonella enterica cells growing either in the presence or in the absence of inhibitors are induced for the production of SipB. Following an established period of growth the cells are sedimented and the amount of SipB present in the supernatant is quantified with a scanning imager following application of immunoblot techniques. Detection may employ an anti-SipB mouse monoclonal antibody (e.g., obtained from Jorge Galan, SUNY at Stony Brook, N.Y.) followed by treatment with commercially available sheep anti-mouse polyclonal antibody conjugated with horseradish peroxidase. Thereafter the membrane is treated with a peroxidase chemiluminescent substrate and exposed to film for an appropriate exposure time. Inhibition may be measured relative to untreated controls.

[2] = system: Type III-dependent secretion of ExoU by P. aeruginosa PA103; assay: Tertiary assay: Type III-dependent secretion of ExoU by P. aeruginosa PA103; settings: Pseudomonas aeruginosa, ExoU secreted into extracellular medium
From the text: Tertiary assay: inhibition of Type III protein secretion of effectors from a Pseudomonas aeruginosa system. Type III protein secretion is used by P. aeruginosa to secrete several essential virulence determinants. One effector of the type III protein secretion system of P. aeruginosa PA103 is the virulence determinants ExoU.
The amount of Type III-dependent secretion of ExoU by P. aeruginosa PA103 can be determined in a cell-based assay by quantification of the 73.9 kDa ExoU protein secreted into the extracellular medium. Such quantitation can be achieved by growing strain PA103 in a deferrated medium in the presence of nitrilotriacetic acid (an inducer of Type III protein secretion in P. aeruginosa) and either in the presence or absence of putative inhibitors. After a prolonged growth period, the cells are sedimented and the supernatants concentrated by ammonium sulfate precipitation. The proteins in the resuspended pellets are separated by electrophoresis on SDS-polyacrylamide gels. After staining gels with Colloidal Blue™, the 73.9 kDa ExoU band is quantitated by scanning through an imager. The effects of inhibitors on the intensity of the ExoU band may be measured relative to that of untreated controls.

[3] = system: Type III protein secretion of the chimeric SopE‘-’Bla polypeptide (SPI1 type III protein secretion system); assay: Primary assay: Type III protein secretion of the chimeric SopE'-'Bla polypeptide by Salmonella enterica; settings: read-out: SopE IC50(μM)
Summary of the method: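 Salmonella enterica grown under SPI1-inducing conditions expressed a SopE‘-’Bla fusion, with TEM-1 β-lactamase lacking its signal peptide, with or without test compounds. Nitrocefin added to the cultures was hydrolysed only by the secreted fusion, so the colorimetric signal reports type III secretion, and inhibitors lower it.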

| Structure (SMILES) | IC50 [1] | IC50 [2] | IC50 [3] |
| --- | --- | --- | --- |
| O=C(N[C@H](CO)CSCc1ccccc1)/C(=C\c1ccc(-c2ccccc2)cc1)NC(=O)c1ccc(C(F)(F)F)cc1 [Compound 14] | 77.3 µM | – | – |
| O=C(N[C@@H](Cc1ccc(Cl)cc1)C(=O)O)/C(=C\c1cccc(C(F)(F)F)c1)NC(=O)c1ccc(Oc2ccccc2)cc1 [Compound 47, (S)-3-(4-Chlorophenyl)-2-[2-(4-phenoxybenzoylamino)-3-(3-trifluoromethyl-phenyl)acryloylamino]propionic acid] | – | 35.1 µM | 12.4 µM |
